The source of these data is US20140107109A1, “AMINO-DIHYDROTHIAZINE AND AMINO-DIOXIDO DIHYDROTHIAZINE COMPOUNDS AS BETA-SECRETASE ANTAGONISTS AND METHODS OF USE” (Amgen Inc., priority 2012, published 2014).

The subject of test [1] is Aβ40 in conditioned medium of cells stably expressing Amyloid Precursor Protein (APP). As to the kind of experiment: In vitro BACE cell-based assay (HEK cell assay), Aβ40 sandwich ELISA. The note with it: Homo sapiens, HEK293. The procedure: In Vitro BACE Cell-Based Assay
The cell-based assay measures inhibition or reduction of Aβ40 in conditioned medium of test compound treated cells expressing amyloid precursor protein.
Cells stably expressing Amyloid Precursor Protein (APP) were plated at a density of 40K cells/well in 96 well plates (Costar). The cells were cultivated for 24 hours at 37C. and 5% CO2 in DMEM supplemented with 10% FBS. The test compounds were then added to cells in 10-point dose response concentrations with the starting concentration being either 100 μM or 10 μM. The compounds were diluted from stock solutions in DMSO and the final DMSO concentration of the test compounds on cells was 0.1%. After 24 h of incubation with the test compounds the supernatant conditioned media was collected and the Aβ 40 levels were determined using a sandwich ELISA. The IC50 of the compound was calculated from the percent of control or percent inhibition of Aβ 40 as a function of the concentration of the test compound.
The sandwich ELISA to detect Aβ 40 was performed in 96 well microtiter plates, which were pre-treated with goat anti-rabbit IgG (Pierce). The capture and detecting antibody pair that were used to detect Aβ 40 from cell supernatants were affinity purified pAb40 (Biosource) and biotinylated 6E10 (Signet Labs Inc.), respectively. The optimal concentration for the pAb40 antibody was 3 μg/ml in Superblock/TBS (Pierce) that was supplemented with 0.05% Tween 20 (Sigma). Optimal concentration for the detection antibody 6E10-biotinylated was 0.5 μg/ml in Superblock/TBS (Pierce) that had been supplemented with 2% normal goat serum and 2% normal mouse serum.
Cellular supernatants were incubated with the capture antibody for 3 h at 4° C., followed by 3 wash steps in TBS-tween (0.05%). The detecting antibody incubation was for 2 h at 4° C., again followed by the wash steps as described previously. The final readout of the ELISA is Time-Resolved Fluorescence (counts per minute) using Delfia reagents Streptavidin-Europium and Enhancement solutions (Perkin Elmer) and the Victor 2 multilabel counter (Perkin Elmer).
Background: ELISA stands for enzyme-linked immunosorbent assay.

Another test deals with T1, Cathepsin D (Cat D) (Homo sapiens, UniProt P07339).
T1 construct: Recombinant Cat D was expressed in CHO cells; made in house; host or cells: CHO cells
As to the kind of experiment: In vitro enzymatic Cathepsin D (Cat D) FRET assay. The format is biochemical. The note with it: read-out: CatD IC50. As to the method:
In Vitro Enzymatic Cathepsin D (Cat D) FRET (Fluorescence Resonance Energy Transfer) Assay Recombinant Cat D was expressed in CHO cells. […] The Cat D enzyme (9 nM) is pre-incubated for one hour with inhibitors, typically in about 1 uL of DMSO according to a serial dilution, is added thereto. […] The FRET assay is terminated with by addition of Tris buffer, which raises the pH to neutrality, and the fluorescence is determined. The FRET substrate is a peptide with commercially available fluorophore and quencher, on opposite sides of the BACE cleavage site. The Cat D substrate peptide sequence is based on sequence #1 of Table 1 from Gulnik et al. […] Alternatively, a Cat D assay may also be run according to the procedure described in the article, Characterization of new fluorgenic substrates for the rapid and sensitive assay of cathepsin E and cathepsin D, J. Biochem., 125:1137, 1999. In addition, the cathepsin D and cathepsin E assays are described in PCT publication WO2011069934. This WIPO publication describes BACE inhibitor compounds having an amide linker connecting two aromatic groups with extremely poor cathepsin D and/or cathepsin E inhibitory activity (see Table 2). Where available, the in-vitro Cat D FRET assay data for each of the Examples, conducted by the first procedure, is provided.

The target in test [2] is Beta Secretase enzyme (BACE1) (Homo sapiens, UniProt P56817). In words: In vitro enzymatic BACE FRET assay. Type of test: biochemical. The note with it: read-out: BACE1 FRET assay IC50. The procedure: In Vitro Enzymatic BACE FRET (Fluorescence Resonance Energy Transfer) Assay (Enzyme Assay Data in the Example Tables I and II)
The assay buffer used in this screen is 0.05 M acetate, pH 4.2, 10% DMSO final, 100 uM genapol (which is a nonionic detergent, below its Critical Micelle Concentration). […] This assay is effectively started by the addition of FRET substrate (50 nM) and the combination is incubated for one hour. The FRET assay is terminated with by addition of Tris buffer, which raises the pH to neutrality, and the fluorescence is determined. The FRET substrate is a peptide with commercially available fluorophore and quencher, on opposite sides of the BACE cleavage site. Proteolytic cleavage of the FRET substrate releases quenching of fluorescence (excitation […] and […]).

Structures are written as SMILES. Like-named read-outs stand apart in the source and are kept apart here.

Chain of Beta Secretase enzyme (BACE1) (P56817 46-501): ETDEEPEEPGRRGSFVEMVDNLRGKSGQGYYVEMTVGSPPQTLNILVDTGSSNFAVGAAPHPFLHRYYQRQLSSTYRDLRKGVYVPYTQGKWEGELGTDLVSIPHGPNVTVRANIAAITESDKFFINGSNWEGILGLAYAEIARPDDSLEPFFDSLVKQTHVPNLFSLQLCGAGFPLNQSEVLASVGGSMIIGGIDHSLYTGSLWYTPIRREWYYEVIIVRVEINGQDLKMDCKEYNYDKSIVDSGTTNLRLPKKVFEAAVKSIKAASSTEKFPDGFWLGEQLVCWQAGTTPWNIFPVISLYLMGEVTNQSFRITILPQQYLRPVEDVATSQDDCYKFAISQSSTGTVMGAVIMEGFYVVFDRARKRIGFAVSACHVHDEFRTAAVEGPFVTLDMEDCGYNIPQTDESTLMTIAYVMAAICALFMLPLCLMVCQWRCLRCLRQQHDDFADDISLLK
T1 sequence (P07339 65-412, species assumed): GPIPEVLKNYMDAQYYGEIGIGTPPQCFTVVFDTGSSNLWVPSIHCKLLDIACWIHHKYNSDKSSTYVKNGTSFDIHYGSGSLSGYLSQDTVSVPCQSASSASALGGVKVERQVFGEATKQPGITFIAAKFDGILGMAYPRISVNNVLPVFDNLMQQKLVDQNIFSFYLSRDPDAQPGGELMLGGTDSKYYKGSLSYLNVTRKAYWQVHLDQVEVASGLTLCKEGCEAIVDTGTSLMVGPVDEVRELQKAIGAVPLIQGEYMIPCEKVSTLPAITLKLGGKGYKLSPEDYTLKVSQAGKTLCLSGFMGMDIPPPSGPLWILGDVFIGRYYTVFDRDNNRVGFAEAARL

The IC50 is the concentration needed to halve the response being measured. Consider `COc1cnc(C(=O)Nc2ccc(F)c(C3(C(F)(F)F)CS(=O)(=O)C(C)(C)C(N)=N3)c2)cn1` (stereo in doubt) [Example 34, N-(3-((3R)-5-amino-6,6-dimethyl-1,1-dioxido-3-(trifluoromethyl)-3,6-dihydro-2H-1,4-thiazin-3-yl)-4-fluorophenyl)-5-methoxy-2-pyrazinecarboxamide], for which the IC50 in test [1] (Aβ40, 24 h incubation) was greater than 10 µM.
`COc1cnc(C(=O)Nc2ccc(F)c([C@]3(C)CS(=O)(=O)C(C)(C)C(N)=N3)c2)cn1` [Example 17, N-(3-((3R)-5-amino-3,6,6-trimethyl-1,1-dioxido-3,6-dihydro-2H-1,4-thiazin-3-yl)-4-fluorophenyl)-5-methoxy-2-pyrazinecarboxamide]: the IC50 is greater than 400 µM at Cathepsin D (Cat D) and 0.0022 µM in test [1] (Aβ40, 24 h incubation).
For `CC1(C)C(N)=N[C@](C)(c2cc(NC(=O)c3ccc(Cl)cn3)ccc2F)CS1(=O)=O` [Example 19, N-(3-((3R)-5-amino-3,6,6-trimethyl-1,1-dioxido-3,6-dihydro-2H-1,4-thiazin-3-yl)-4-fluorophenyl)-5-chloro-2-pyridinecarboxamide], in that order: 240 µM and 0.0014 µM.
For the compound `COc1cnc(C(=O)Nc2ccc(F)c([C@]3(C)CSCC(N)=N3)c2)cn1` [Example 43, (R)—N-(3-(5-amino-3-methyl-3,6-dihydro-2H-1,4-thiazin-3-yl)-4-fluorophenyl)-5-methoxypyrazine-2-carboxamide], in test [1] (Aβ40, 24 h incubation), the midpoint of inhibition, the IC50, lay at 0.007 µM.
In test [1] (Aβ40, 24 h incubation), `COc1cnc2c(Nc3cnc(F)c([C@]4(C)CS(=O)(=O)C(C)(C)C(N)=N4)c3)nccc2c1` [Example 66, N-(5-((3R)-5-amino-3,6,6-trimethyl-1,1-dioxido-3,6-dihydro-2H-1,4-thiazin-3-yl)-6-fluoro-3-pyridinyl)-3-methoxy-1,7-naphthyridin-8-amine] registered an IC50 of 0.0067 µM.
In the case of `COc1cc(C)ccc1Oc1ccc(F)c([C@]2(C)CS(=O)(=O)C(C)(C)C(N)=N2)c1` [Example 97, (R)-5-amino-3-(2-fluoro-5-(2-methoxy-4-methylphenoxy)phenyl)-3,6,6-trimethyl-3,6-dihydro-2H-1,4-thiazine 1,1-dioxide], the half-inhibitory concentration (IC50) stood at 182 µM on Cathepsin D (Cat D) and 6.86 µM in test [1] (Aβ40, 24 h incubation).
In the case of `CC1(C)C(N)=N[C@](C)(c2cc(NC(=O)c3nn(C(F)F)cc3Cl)ccc2F)CS1(=O)=O` [Example 106, (R)—N-(3-(5-amino-3,6,6-trimethyl-1,1-dioxido-3,6-dihydro-2H-1,4-thiazin-3-yl)-4-fluorophenyl)-4-chloro-1-(difluoromethyl)-1H-pyrazole-3-carboxamide], the concentration for half-maximal inhibition (IC50) was found to be 112 µM on Cathepsin D (Cat D) and 0.00174 µM in test [2].
For `CC1(C)C(N)=N[C@](C)(c2cc(NCc3nn(C(F)F)cc3Cl)ccc2F)CS1(=O)=O` [Example 107, (R)-5-amino-3-(5-(((4-chloro-1-(difluoromethyl)-1H-pyrazol-3-yl)methyl)amino)-2-fluorophenyl)-3,6,6-trimethyl-3,6-dihydro-2H-1,4-thiazine 1,1-dioxide], the IC50 at Cathepsin D (Cat D) is 81.1 µM; in test [2] (average IC50, enzyme assay), 0.00227 µM.
As for `C[C@@]1(c2cc(Br)ccc2F)CS(=O)(=O)C2(CC(O)C2)C(N)=N1` (stereo partly drawn) [Example 112, (R)-9-amino-7-(5-bromo-2-fluorophenyl)-2-hydroxy-7-methyl-5-thia-8-azaspiro[3.5]non-8-ene 5,5-dioxide], the IC50 turned out to be 37.3 µM at Cathepsin D (Cat D) and 1.19 µM in test [2] (average IC50, enzyme assay).
For `C[C@@]1(c2cc(Br)ccc2F)CS(=O)(=O)C2(CCC2)C(N)=N1` [Example 113, (R)-9-amino-7-(5-bromo-2-fluorophenyl)-7-methyl-5-thia-8-azaspiro[3.5]non-8-ene 5,5-dioxide], in that order: 30 µM and 4.05 µM.
As for `CC1(C)C(N)=N[C@@]2(c3cc(Nc4nccc5cc(Cl)cnc45)ccc3F)C[C@H]2S1(=O)=O` [Example 183, (1R,6R)-4-amino-6-(5-((3-chloro-1,7-naphthyridin-8-yl)amino)-2-fluorophenyl)-3,3-dimethyl-2-thia-5-azabicyclo[4.1.0]hept-4-ene 2,2-dioxide], the IC50 came to 87.9 µM at Cathepsin D (Cat D) and 4.74 µM in test [1] (average IC50, cell assay).
In test [1] (average IC50, cell assay), `CC1(C)C(N)=NC2(c3cc(Br)ccc3F)COCC2S1(=O)=O` (centres unmarked) [Example 185, 3-amino-4a-(5-bromo-2-fluorophenyl)-2,2-dimethyl-4a,5,7,7a-tetrahydro-2H-furo[3,4-b][1,4]thiazine 1,1-dioxide] returned an IC50 greater than 15.6 µM.
Turning to `CC1(C)C(N)=N[C@@]2(c3cc(Br)ccc3F)COC[C@H]2S1(=O)=O` [Example 185a, (4aS,7aS)-3-amino-4a-(5-bromo-2-fluorophenyl)-2,2-dimethyl-4a,5,7,7a-tetrahydro-2H-furo[3,4-b][1,4]thiazine 1,1-dioxide], the IC50 in test [1] (average IC50, cell assay) is greater than 15.6 µM.
On to `CC1(C)C(N)=N[C@]2(c3cc(Br)ccc3F)COC[C@@H]2S1(=O)=O` [Example 185b, (4aR,7aR)-3-amino-4a-(5-bromo-2-fluorophenyl)-2,2-dimethyl-4a,5,7,7a-tetrahydro-2H-furo[3,4-b][1,4]thiazine 1,1-dioxide], for which, in test [1] (average IC50, cell assay), the IC50 is greater than 15.6 µM.
Turning to `CC1(C)C(N)=N[C@@]2(c3cc(N)ccc3F)COC[C@H]2S1(=O)=O` [Example 185c, (4aS,7aS)-3-amino-4a-(5-amino-2-fluorophenyl)-2,2-dimethyl-4a,5,7,7a-tetrahydro-2H-furo[3,4-b][1,4]thiazine 1,1-dioxide], the half-maximal inhibitory concentration (IC50) in test [1] (average IC50, HEK cells) is greater than 15.6 µM.
Same read-out and setting: the figure for `CC1(C)C(N)=N[C@]2(c3cc(N)ccc3F)COC[C@@H]2S1(=O)=O` [Example 185d, (4aR,7aR)-3-amino-4a-(5-amino-2-fluorophenyl)-2,2-dimethyl-4a,5,7,7a-tetrahydro-2H-furo[3,4-b][1,4]thiazine 1,1-dioxide] is greater than 15.6 µM.
For the compound `CC1(C)C(N)=N[C@](C)(c2cc(Nc3nccc4nc(C(F)(F)F)cnc34)ccc2F)C(F)S1(=O)=O` (stereo partly drawn) [Example 227, N-(3-((3R)-5-amino-2-fluoro-3,6,6-trimethyl-1,1-dioxido-3,6-dihydro-2H-1,4-thiazin-3-yl)-4-fluorophenyl)-2-(trifluoromethyl)pyrido[3,4-b]pyrazin-5-amine], the IC50 at Cathepsin D (Cat D) is greater than 44.4 µM; in test [2] (average IC50, enzyme assay) it was 0.00659 µM.
`CC1(C)C(N)=N[C@](C)(c2cc(OCc3ccccc3)ccc2F)CS1(=O)=O` [Example 301, (5R)-5-(5-(benzyloxy)-2-fluorophenyl)-2,2,5-trimethyl-5,6-dihydro-2H-1,4-thiazin-3-amine 1,1-dioxide]: the IC50 on Cathepsin D (Cat D) is 184 µM; in test [1] (average IC50, HEK cell assay) it was 1.06 µM.
The compound `CC1(C)C(N)=N[C@](CF)(c2cc(Nc3nncc4cc(Cl)ccc34)ccc2F)CS1(=O)=O` [Example 450, N-(3-((3S)-5-amino-3-(fluoromethyl)-6,6-dimethyl-1,1-dioxido-3,6-dihydro-2H-1,4-thiazin-3-yl)-4-fluorophenyl)-6-chloro-1-phthalazinamine] registered an IC50 in test [1] (average IC50, cell assay) of 0.7 µM.
